{"source": "patent EP0791056B1", "about": "“LIPID-CLEAVAGE ENZYME COMPLEX” (priority 1994, dated 1996)", "key": {"P3X63Ag8.653-Zellen": {"test_system": "P3X63Ag8.653-Zellen", "assay": "Intracellular concentrations of AZT and AZT nucleotides (radioimmunoassay) in thymidine kinase deficient cells", "assay_type": "in vitro ADME", "conditions": "for maximale Konzentrationen an AZT und AZT-Nukleotiden: after 6 h; for maximale Konzentrationen, nur AZT erfaßt: after 24 h, without alkaline phosphatase; for Substanzspiegel an phosphoryliertem AZT: comparison before/after alkaline phosphatase", "description": "Die Bestimmung der intrazellulären Konzentrationen an AZT und AZT-Nukleotiden in Thymidikinasedefizienten Zellen sollte weitere Erkenntnisse über die intrazelluläre Spaltung der Testsubstanz AZT-DMDOPE liefern. Intrazelluläres AZT kann in diesen Zellen aufgrund eines Mangels an Thymidin-Kinase (TK) nicht in ATZ-MP und somit in das therapeutisch wirksame AZT-TP überführt werden. Die Bestimmung der intrazellulären Konzentrationen an AZT und AZT-Nukleotiden nach Inkubation mit AZT-DMDOPE könnte somit einen weiteren Hinweis auf die Spaltung der Teststubstanz geben.\nHierfür wurden in Gewebekulturschalen (60 x 15 mm) 1 x 10^7 Zellen in RPMI 1640 Komplettmedium I mit 0.03 bzw. 0.3 µg AZT/ml und 1 bzw. 10 µg AZT-DMDOPE/ml über 6, 24 und 48 h inkubiert. Nach Extraktion von AZT und der AZT-Nukleotide und einer Behandlung mit alkalischer Phosphatase wurde die Konzentration an AZT mit Hilfe des Radioimmuno-Assays bestimmt."}, "stimulierten humanen PBL": {"test_system": "stimulierten humanen PBL", "assay": "Intracellular decay kinetics of AZT and AZT nucleotides after removal of the incubation solution", "assay_type": "in vitro ADME, human", "protocol": "Stimulierte humane PBL wurden für 24 h mit 0.3 µg AZT/ml bzw. 10 µg AZT-DMDOPE/ml inkubiert. Anschließend wurden 1 x 10^7 Zellen in Gewebekulturflaschen (50 ml/25 cm^2) mit RPMI 1640 Komplettmedium I überführt. Nach 1, 3, 6, 24 und 48 h wurde AZT und die AZT-Nukleotide aus der zellulären Matrix extrahiert. Nach einer Behandlung mit alkalischer Phosphatase wurde mit Hilfe des Radioimmuno-Assays die Konzentration an AZT bestimmt."}, "[1]": {"target": "T1, Phospholipase C aus Bacillus cereus (Bacillus cereus, UniProt P09598)", "T1 construct": "purchased Boehringer Mannheim GmbH", "T1 sequence (P09598 39-283 limits assumed)": "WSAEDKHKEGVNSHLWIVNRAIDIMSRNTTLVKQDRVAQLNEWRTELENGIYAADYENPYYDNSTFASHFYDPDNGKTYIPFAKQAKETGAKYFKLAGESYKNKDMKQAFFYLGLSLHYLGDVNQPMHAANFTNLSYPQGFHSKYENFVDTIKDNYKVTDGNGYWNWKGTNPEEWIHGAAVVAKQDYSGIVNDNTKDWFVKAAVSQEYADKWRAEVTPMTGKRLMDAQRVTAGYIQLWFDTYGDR", "assay": "Enzymatic cleavage of AZT-DMDOPE, detection of cleavage products by thin-layer chromatography", "assay_type": "biochemical", "conditions": "10 mg AZT-DMDOPE in 0,1 M Tris, 0,1 mg enzyme, 15 h + 6 h at 37 °C", "protocol": "(§1) 10 mg (3'-Desoxy-3'-azidothymidin)-5'-phosphorsäure-(3-dodecyl-mercapto-2-decyl-oxy)-propylester (AZT-DMDOPE) werden in 0,5 ml 0,1 M Tris-Pufferlösung suspendiert und nach Zugabe des Enzyms (0,5 mg bei Phosphodiesterase und 0,1 mg bei Phospholipase/Nuclease) 15 Stunden bei 37 °C inkubiert. Anschließend wird die Lösung dünnschichtchromatographisch untersucht. Nach Zugabe von 5 Tropfen gesättigter NaHCO3-Lösung wurde weitere 6 Stunden bei 37 °C inkubiert und anschließend die Lösung dünnschichtchromatographisch untersucht.\n(§2) Durch Dünnschichtchromatographie mit verschiedenen Elutionsmitteln wurde die Lösung hinsichtlich der Bildung der möglichen Spaltprodukte (AZT, AZT-monophosphat, DMDOP und Lipidmonophosphat) untersucht.\n(§3) • a) Phospholipase C aus Bacillus cereus, 2000 U/0,5 ml, Boehringer Mannheim GmbH • b) Phospholipase D, Typ I, aus Kohl, 150 - 300 U/mg, Sigma • c) Phosphodiesterase aus Kalbsmilz, 2 U/mg, Boehringer Mannheim GmbH • d) Phosphodiesterase aus Schlangengift, Boehringer Mannheim GmbH • e) Nuclease aus Staphylococcus aureus, 15 000 U/mg, Boehringer Mannheim GmbH • f) LCE (Lipid-Cleavage-Enzyme)"}, "[2]": {"test_system": "LCE (Lipid-Cleavage-Enzyme)", "assay": "Enzymatic cleavage of AZT-DMDOPE, detection of cleavage products by thin-layer chromatography", "assay_type": "biochemical", "conditions": "10 mg AZT-DMDOPE in 0,1 M Tris, 15 h + 6 h at 37 °C", "protocol": "as §1, §2, §3"}, "[3]": {"target": "T2, Nuclease aus Staphylococcus aureus (Staphylococcus aureus, UniProt P00644)", "T2 construct": "purchased Boehringer Mannheim GmbH", "assay": "Enzymatic cleavage of AZT-DMDOPE, detection of cleavage products by thin-layer chromatography", "assay_type": "biochemical", "conditions": "10 mg AZT-DMDOPE in 0,1 M Tris, 0,1 mg enzyme, 15 h + 6 h at 37 °C", "protocol": "as §1, §2, §3"}, "[4]": {"test_system": "Phosphodiesterase aus Kalbsmilz", "assay": "Enzymatic cleavage of AZT-DMDOPE, detection of cleavage products by thin-layer chromatography", "assay_type": "biochemical", "conditions": "10 mg AZT-DMDOPE in 0,1 M Tris, 0,5 mg enzyme, 15 h + 6 h at 37 °C", "protocol": "as §1, §2, §3"}, "[5]": {"test_system": "Phospholipase D, Typ I, aus Kohl", "assay": "Enzymatic cleavage of AZT-DMDOPE, detection of cleavage products by thin-layer chromatography", "assay_type": "biochemical", "conditions": "10 mg AZT-DMDOPE in 0,1 M Tris, 0,1 mg enzyme, 15 h + 6 h at 37 °C; at the height of the lipid phosphate", "protocol": "as §1, §2, §3"}, "LCE": {"test_system": "LCE", "assay": "Substrate cleavage by LCE", "assay_type": "biochemical", "conditions": "cleavage to drug monophosphate and DMDOP", "description": "Das Enzym wird vorzugsweise aus humanen peripheren Blutleukozyten, die zuvor durch PHA oder andere Stimulantien (z.B. Cytokine, etc.) aktiviert wurden, oder aus murinen Nierenzellen isoliert. Aus vorläufigen Untersuchungen ergibt sich ein Molekulargewicht von etwa 120.000 - 160.000, bestimmt nach der SDS-PAGE-Methode. Zellen, die dieses Enzym enthalten, können auf einfache Weise dadurch identifiziert werden, indem sie unter geeigneten Testbedingungen mit einer Lösung von AZT-DMDOPE oder FLT-DMDOPE versetzt werden und die Spaltprodukte AZT-monophosphat bzw. FLT-monophosphat oder DMDOP nachgewiesen werden, beispielsweise durch dünnschichtchromatographische Methoden oder im Fall von radioaktiv markierten Proben durch szintillatographische Verfahren (siehe Beispiele 4 - 7). Im Gegensatz zu den biochemisch verwandten Phospholipasen C oder -D wird das LCE nicht durch bekannte Inhibitoren von Phospholipase C oder -D gehemmt oder durch Aktivatoren von Phospholipase C oder -D aktiviert. Im Gegensatz zu Phospholipase C wird das Enzym durch die Substanz D 609 (Tricyclodecan-9-yl-xanthogenat; C11H15OS2 K) aktiviert, während D 609 Phospholipase C inhibiert."}, "CEM-SS-Zellen": {"test_system": "CEM-SS-Zellen", "assay": "Enzymatic cleavage of [14C]-AZT-DMDOPE by cell homogenates, TLC of metabolites", "assay_type": "in vitro ADME", "conditions": "Zellhomogenate von CEM-SS-Zellen", "protocol": "Die Spaltung von AZT-DMDOPE wurde mit Hilfe eines Enzym-Assays mit [^14C]-AZT-DMDOPE und AZT-DMDOPE als Substrat untersucht. Als Enzymquelle wurden zunächst Zellhomogenate von CEM-SS-Zellen und humanen PBL verwendet. Tab.\nZur Herstellung der Zellhomogenate wurden Zellsuspensionen mit einer Dichte von 5 x10^7 Zellen/ml 50 mM Tris (pH 7.4) im Glashomogenisator mechanisch aufgeschlossen. Der Zellaufschluß wurde hierbei im Umkehr-Phasenkontrast-Mikroskop optisch kontrolliert. Tab.\nZunächst wurde 1 ml dieses Zellhomogenales in dem Enzym-Assay ohne vorherige Bestimmung der Proteinkonzentration eingesetzt.\nZur Gewährleistung einer Substratsättigung wurden weitere 50 nmol der nichtradioaktiv markierten Verbindung hinzugefügt. [^14C]-AZT-DMDOPE trägt die radioaktive Markierung im Thioetherlipidteil und erlaubt somit eine eindeutige Identifikation der potentiellen Metabolits [^14-C]DMDOP.\nDie Ansätze wurden für 1, 3, 6 und 24 h im Wasserbad bei 37 °C inkubiert. Als Vergleich wurde ein Ansatz ohne Zugabe von Zellhomogenat mitgeführt. Anschließend wurden die Spaltprodukte mit Diethylether:2-Propanol (9:1, v/v) extrahiert und dünnschichtchromatographisch im IBA- und IBAE-System analysiert (Abb. 18). Nach Trennung der Substanzen wurde zur Detektion der radioaktiv markierten Substanzen die DC-Platte 15 min im Radio-DC-Analysator gemessen. […]"}}, "data": [{"compound": "CCCCCCCCCCCCSCC(COP(=O)(O)OC[C@H]1O[C@@H](n2cc(C)c(=O)[nH]c2=O)C[C@@H]1N=[N+]=[N-])OCCCCCCCCCC", "note": "(stereo partly shown) [AZT-DMDOPE, (3'-Desoxy-3'-azidothymidin)-5'-phosphorsäure-(3-dodecyl-mercapto-2-decyloxy)-propylester]", "values": [{"measurement": "maximale Konzentrationen an AZT und AZT-Nukleotiden", "setting": "P3X63Ag8.653-Zellen; 1 µg AZT-DMDOPE/ml", "result": 0.55, "unit": "ng/10^6 Zellen"}, {"measurement": "maximale Konzentrationen, nur AZT erfaßt", "setting": "P3X63Ag8.653-Zellen; 1 µg AZT-DMDOPE/ml", "result": 0.05, "unit": "ng/mL"}, {"measurement": "Substanzspiegel an phosphoryliertem AZT", "setting": "P3X63Ag8.653-Zellen; 1 µg AZT-DMDOPE/ml", "result": 0.48, "unit": "ng/10^6 Zellen"}, {"measurement": "maximale Konzentrationen an AZT und AZT-Nukleotiden", "setting": "P3X63Ag8.653-Zellen; 10 µg AZT-DMDOPE/ml", "result": 4.40, "unit": "ng/10^6 Zellen"}, {"measurement": "maximale Konzentrationen, nur AZT erfaßt", "setting": "P3X63Ag8.653-Zellen; 10 µg AZT-DMDOPE/ml", "result": 1.10, "unit": "ng/mL"}, {"measurement": "Substanzspiegel an phosphoryliertem AZT", "setting": "P3X63Ag8.653-Zellen; 10 µg AZT-DMDOPE/ml", "result": 2.42, "unit": "ng/10^6 Zellen"}, {"measurement": "intrazelluläre Konzentrationen an AZT und AZT-Nukleotiden im Vergleich zu äquipotenten Konzentrationen an AZT", "setting": "P3X63Ag8.653-Zellen; 6, 24 and 48 h incubation", "result": "deutlich höher"}, {"measurement": "um Faktor höhere Konzentration an phosphoryliertem AZT im Vergleich zu äquipotenter Konzentration an AZT", "setting": "stimulierten humanen PBL; 10 µg AZT-DMDOPE/ml vs. 0.3 µg AZT/ml", "result": 4.5}, {"measurement": "konstanter Wert der intrazellulären Konzentrationen an AZT und AZT-Nukleotiden", "setting": "stimulierten humanen PBL; 24 h preincubation with 10 µg AZT-DMDOPE/ml, reached after 3 h, constant over 48 h", "result": 1.80, "unit": "ng/10^6 Zellen"}, {"measurement": "Fluoreszenzauslöschung DC", "setting": "[1]", "result": "negativ"}, {"measurement": "Fluoreszenzauslöschung DC", "setting": "[2]", "result": "positiv"}, {"measurement": "Fluoreszenzauslöschung DC", "setting": "[3]", "result": "negativ"}, {"measurement": "Fluoreszenzauslöschung DC", "setting": "[4]", "result": "negativ"}, {"measurement": "Fluoreszenzauslöschung DC", "setting": "[5]", "result": "schwach"}, {"measurement": "Spaltung durch LCE", "setting": "LCE", "result": "spaltet"}, {"measurement": "Metabolisierung von AZT-DMDOPE", "setting": "CEM-SS-Zellen", "result": "zu DMDOP und AZT-MP metabolisiert"}]}]}
